The values that follow are results of earlier work, collected in patent US20230149402A1, “SOLID PHARMACEUTICAL PREPARATION, PREPARATION METHOD THEREFOR AND USE THEREOF” (SHANGHAI HAIYAN PHARMACEUTICAL TECHNOLOGY CO., LTD, priority 2020, published 2023).

One series concerns the target T1, hOX1R (Homo sapiens, UniProt O43613).
T1 sequence (O43613 1-425): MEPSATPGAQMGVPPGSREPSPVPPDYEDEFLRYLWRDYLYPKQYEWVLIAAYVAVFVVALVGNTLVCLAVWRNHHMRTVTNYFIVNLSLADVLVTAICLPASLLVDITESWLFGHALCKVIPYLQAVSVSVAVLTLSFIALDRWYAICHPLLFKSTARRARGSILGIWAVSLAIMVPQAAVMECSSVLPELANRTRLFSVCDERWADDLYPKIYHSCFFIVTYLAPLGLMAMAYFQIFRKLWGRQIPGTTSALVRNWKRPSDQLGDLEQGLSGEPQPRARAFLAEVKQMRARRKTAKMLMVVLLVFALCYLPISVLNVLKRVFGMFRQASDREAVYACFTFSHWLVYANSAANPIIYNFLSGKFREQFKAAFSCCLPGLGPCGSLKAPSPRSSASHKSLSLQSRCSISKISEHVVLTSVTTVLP
The note with it: FLIPR, read-out: IC50, inhibitory effect on OX1 GPCR receptor.

The next series addresses T2, hOX2R (Homo sapiens, UniProt O43614).
T2 sequence (O43614 1-444): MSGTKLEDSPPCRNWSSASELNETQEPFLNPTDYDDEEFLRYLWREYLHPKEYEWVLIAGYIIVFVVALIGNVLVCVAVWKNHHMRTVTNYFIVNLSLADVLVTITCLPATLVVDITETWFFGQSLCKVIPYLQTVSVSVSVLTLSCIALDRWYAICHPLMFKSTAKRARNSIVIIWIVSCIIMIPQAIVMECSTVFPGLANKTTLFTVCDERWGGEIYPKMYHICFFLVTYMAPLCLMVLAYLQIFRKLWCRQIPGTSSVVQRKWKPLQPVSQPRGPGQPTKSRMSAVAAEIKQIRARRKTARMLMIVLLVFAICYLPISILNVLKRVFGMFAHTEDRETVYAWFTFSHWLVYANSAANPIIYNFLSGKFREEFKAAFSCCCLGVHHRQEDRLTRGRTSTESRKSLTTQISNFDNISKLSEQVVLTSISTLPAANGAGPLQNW
The conditions noted are these: FLIPR, read-out: IC50, inhibitory effect on OX2 GPCR receptor.

Take `Cc1ccc(-c2ncccn2)c(C(=O)N2[C@H]3CC[C@@H](COc4ccc(F)cn4)[C@@H]2CC3)c1` [compound of formula (II), ((1S,2R,5S)-2-(((5-fluoropyridin-2-yl)oxy)methyl)-8-azabicyclo[3.2.1]octan-8-yl)(5-methyl-2-(pyrimidin-2-yl)phenyl)methanone]: the IC50 at hOX1R was 20 nM; on hOX2R it was 36 nM.
